# Assay results: patent US9642895B2, “Peptides for enhancing transdermal delivery” (3M INNOVATIVE PROPERTIES COMPANY, priority 2013, dated 2017)
# Tested on: hairless guinea pig skin
# Assay: In vitro penetration of FITC through full skin
# Type: in vitro ADME
# Conditions: peptide 2.5 mg/mL with FITC sodium salt 0.05 mg/mL in PBS; 3 hours at room temperature then 4° C. overnight; UV 340 nm
# Method: An in vitro assay to test for skin penetration enhancement was conducted using hairless guinea pig skin. A full skin sample from the back region of the animal was used. The test sample was prepared containing FITC sodium salt (at a concentration of 0.05 mg/mL), the peptide SHSACLDNTFRACG (Sequence ID No: 17) at a concentration of 2.5 mg/mL, and PBS (40 microliters). The control sample was prepared containing only FITC sodium salt (at a concentration of 0.05 mg/mL), and PBS (40 microliters). Each sample was applied to a separate 0.25 cm^2 section on the stratum corneum side of the guinea pig skin using a PIPETMAN Classic pipet. The treated skin samples were covered, maintained at room temperature for 3 hours and then at 4° C. overnight. The side of the skin sample opposite the application side was visually examined under ultraviolet light (340 nm). Visualization of a fluorescent spot on the side of the skin directly opposite from the application site was used to confirm penetration of FITC through the skin. […] For the control sample a fluorescent spot was not visualized on the side of the skin directly opposite from the application site.
substance,measurement,value
17 (SHSACLDNTFRACG; Phage display library peptides) [compound 17],fluorescent spot on the side of the skin directly opposite from the application site (penetration of FITC through the skin),a fluorescent spot was visualized
